Data from ChEMBL document CHEMBL4483862, “Open-source discovery of chemical leads for next-generation chemoprotective antimalarials” (2018).

Test system: Plasmodium berghei
Assay: Luciferase/luciferin-expressing antifolate-resistant parasites were used to infect a culture of HepG2 cells that were pre-incubated with compounds. Infected hepatocytes emit light due to the luciferase reaction. Assay results are presented as the percent inhibition of light emission compared to control. […]
Type: functional
Conditions: sporozoite; for IC90: read-out: LUCIFERASE INFECTION ASSAY - IC90

Row | Compound | IC90 [µM] | also measured
1 | COc1cc2c(cc1OC)C(c1ccccc1C(F)(F)F)CC(=O)N2 (stereo not given) | > 9.39 | IC50 (PBLUC_HILL_SLOPE 2.57, PBLUC_R_SQUARED 0.0741, read-out: LUCIFERASE INFECTION ASSAY - IC50): 7.98 µM
2 | Cc1nnsc1C(=O)Nc1ccc(-n2nc(C(F)(F)F)cc2C(F)(F)F)cc1 | > 7.83 | IC50 (PBLUC_HILL_SLOPE 2.63, PBLUC_R_SQUARED 0.209, read-out: LUCIFERASE INFECTION ASSAY - IC50): 5.65 µM
3 | Cc1cc(O)nc(N/N=C/c2c(C)nn(-c3ccccc3Cl)c2Cl)n1 | 2.19 | IC50 (PBLUC_HILL_SLOPE 2.61, PBLUC_R_SQUARED 0.512, read-out: LUCIFERASE INFECTION ASSAY - IC50): 0.943 µM
4 | CN(C)c1ccc(-c2cnc3cnc(-c4ccc(C(=O)NCCO)cc4)cn23)cc1 | > 8.22 | IC50 (PBLUC_HILL_SLOPE 2.64, PBLUC_R_SQUARED 0.078, read-out: LUCIFERASE INFECTION ASSAY - IC50): 6.1 µM
5 | Cc1cc(CSc2ccccc2C(=O)NNC(=O)c2ccccc2O)on1 | > 10 | IC50 (PBLUC_HILL_SLOPE 2.63, PBLUC_R_SQUARED 0.786, read-out: LUCIFERASE INFECTION ASSAY - IC50): 7.42 µM
6 | N#Cc1c(Cl)cccc1Oc1ccc(S(=O)(=O)Oc2c(Cl)cccc2Cl)cc1 | > 7.26 | IC50 (PBLUC_HILL_SLOPE 2.67, PBLUC_R_SQUARED 0.0667, read-out: LUCIFERASE INFECTION ASSAY - IC50): 6.81 µM
7 | NC(=O)Cc1ccc(C(=O)CSc2ncnc3sc(-c4ccccc4)cc23)s1 | > 10 | IC50 (PBLUC_HILL_SLOPE 2.63, PBLUC_R_SQUARED 0.33, read-out: LUCIFERASE INFECTION ASSAY - IC50): 7.38 µM
8 | CCn1nc(C(=O)NCc2ccc(OC)cc2)c2c1CCN(C(=O)c1cc(C)n[nH]1)C2 | 3.69 | IC50 (PBLUC_HILL_SLOPE 2.57, PBLUC_R_SQUARED 0.68, read-out: LUCIFERASE INFECTION ASSAY - IC50): 1.57 µM
9 | COc1ccc(OC)c(-c2csc(NC(=O)c3[nH]c(C)c(C(C)=O)c3C)n2)c1 | > 10 | IC50 (PBLUC_HILL_SLOPE 2.64, PBLUC_R_SQUARED 0.217, read-out: LUCIFERASE INFECTION ASSAY - IC50): 5.92 µM
10 | CC(NCC(O)COc1ccccc1C(C)(C)C)c1ccccc1 (stereo not given) | > 9.07 | IC50 (PBLUC_HILL_SLOPE 2.67, PBLUC_R_SQUARED 0.166, read-out: LUCIFERASE INFECTION ASSAY - IC50): 4.35 µM
11 | Cc1cc(Nc2ccc(C(c3ccc(C(=O)O)cc3)c3ccc(Nc4cc(C)nn4-c4ccccc4)nc3Cl)c(Cl)n2)n(-c2ccccc2)n1 | > 10 | IC50 (PBLUC_HILL_SLOPE 2.61, PBLUC_R_SQUARED 0.324, read-out: LUCIFERASE INFECTION ASSAY - IC50): 6.2 µM
12 | CN(C)S(=O)(=O)c1cc(C(=O)Nc2nc(-c3ccccc3)cn2/N=C/c2ccccc2)ccc1Cl | > 10 | IC50 (PBLUC_HILL_SLOPE 2.59, PBLUC_R_SQUARED 0.747, read-out: LUCIFERASE INFECTION ASSAY - IC50): 5.75 µM
13 | COc1cc(OC)cc(-c2cc3c(Nc4cccc(S(C)(=O)=O)c4)nccc3n2C)c1 | > 10 | IC50 (PBLUC_HILL_SLOPE 2.63, PBLUC_R_SQUARED 0.0611, read-out: LUCIFERASE INFECTION ASSAY - IC50): 6.92 µM
14 | CCOC(=O)N1CCC(Nc2ncnc3c2oc2ccccc23)CC1 | > 10 | IC50 (PBLUC_HILL_SLOPE 2.64, PBLUC_R_SQUARED 0.787, read-out: LUCIFERASE INFECTION ASSAY - IC50): 6.72 µM
15 | CNc1nc2cnc(Nc3ccc(C(C)C)cc3)cc2n1Cc1ccc(OC)c(OC)c1 | > 10 | IC50 (PBLUC_HILL_SLOPE 2.59, PBLUC_R_SQUARED 0.223, read-out: LUCIFERASE INFECTION ASSAY - IC50): 6.81 µM
16 | CCCCCc1ccc(-c2nnc(SCC(=O)c3ccccc3)[nH]2)cc1 | > 9.03 | IC50 (PBLUC_HILL_SLOPE 2.65, PBLUC_R_SQUARED 0.501, read-out: LUCIFERASE INFECTION ASSAY - IC50): > 9.03 µM
17 | Cc1c(C(=O)Nc2ccnn2Cc2ccccc2)cnn1C(C)(C)C | > 10 | IC50 (PBLUC_HILL_SLOPE 2.67, PBLUC_R_SQUARED 0.113, read-out: LUCIFERASE INFECTION ASSAY - IC50): > 10 µM
18 | CN(C)CCCCCCOc1ccc2c(c1)CCC1C2CCC2(C)C(=O)CCC12 (stereo not given) | > 8.3 | IC50 (PBLUC_HILL_SLOPE 2.65, PBLUC_R_SQUARED 0.355, read-out: LUCIFERASE INFECTION ASSAY - IC50): 3.69 µM
19 | Cc1cccc(C)c1N1C(=O)C=CC1=O | > 16.4 | IC50 (PBLUC_HILL_SLOPE 2.64, PBLUC_R_SQUARED 0.435, read-out: LUCIFERASE INFECTION ASSAY - IC50): > 16.4 µM
20 | CNc1nc2cnc(Nc3cccc(OC(F)(F)F)c3)cc2n1-c1cc(OC)c(OC)c(OC)c1 | > 10 | IC50 (PBLUC_HILL_SLOPE 2.6, PBLUC_R_SQUARED 0.253, read-out: LUCIFERASE INFECTION ASSAY - IC50): 6.55 µM

Row | Compound | IC90 [µM] | also measured
21 | CC1=C/C(=N\NC(=O)c2ccc(Br)cc2)CC(C)(C)C1 | > 10 | IC50 (PBLUC_HILL_SLOPE 2.58, PBLUC_R_SQUARED 0.715, read-out: LUCIFERASE INFECTION ASSAY - IC50): 6.68 µM
22 | Cc1cc(=O)nc(N/N=C/c2cc(C)n(-c3ccc(C)c(C)c3)c2C)[nH]1 | > 10 | IC50 (PBLUC_HILL_SLOPE 2.67, PBLUC_R_SQUARED 0.2, read-out: LUCIFERASE INFECTION ASSAY - IC50): 9.4 µM
23 | CCc1nn2c(NCc3cccnc3)cc(C)nc2c1-c1ccccc1 | > 9.61 | IC50 (PBLUC_HILL_SLOPE 2.62, PBLUC_R_SQUARED 0.301, read-out: LUCIFERASE INFECTION ASSAY - IC50): 7.32 µM
24 | O=C(Nc1ccc(-n2cccn2)nc1)C1=NN(c2ccccc2)C(=O)CN1 | > 10 | IC50 (PBLUC_HILL_SLOPE 2.66, PBLUC_R_SQUARED 0.194, read-out: LUCIFERASE INFECTION ASSAY - IC50): > 10 µM
25 | COc1cccc(Cn2nc(C(=O)NC3CC3)c3c2CCN(Cc2cc4c(cc2Cl)OCO4)C3)c1 | > 6.67 | IC50 (PBLUC_HILL_SLOPE 2.62, PBLUC_R_SQUARED 0.537, read-out: LUCIFERASE INFECTION ASSAY - IC50): 3.5 µM
26 | C=C(C)c1cccc(C(C)(C)NC(=O)NNc2ccnc3cc(Cl)ccc23)c1 | 9.06 | IC50 (PBLUC_HILL_SLOPE 2.57, PBLUC_R_SQUARED 0.548, read-out: LUCIFERASE INFECTION ASSAY - IC50): 3.86 µM
27 | Cc1cc(NC(=O)c2ccc(-c3cccc4ccccc34)s2)no1 | > 10 | IC50 (PBLUC_HILL_SLOPE 2.6, PBLUC_R_SQUARED 0.519, read-out: LUCIFERASE INFECTION ASSAY - IC50): 5.02 µM
28 | CCN(CC)S(=O)(=O)c1ccc(N/N=C/c2c(-c3ccccc3)[nH]c3ccccc23)nc1 | > 10 | IC50 (PBLUC_HILL_SLOPE 2.64, PBLUC_R_SQUARED 0.392, read-out: LUCIFERASE INFECTION ASSAY - IC50): 4.46 µM
29 | Cc1cc([N+](=O)[O-])cc[n+]1[O-] | > 21.4 | IC50 (PBLUC_HILL_SLOPE 2.57, PBLUC_R_SQUARED 0.305, read-out: LUCIFERASE INFECTION ASSAY - IC50): 14.6 µM
30 | O=C(c1[nH]nc2ccccc12)N1CCN(S(=O)(=O)c2cccs2)CC1 | > 10 | IC50 (PBLUC_HILL_SLOPE 2.58, PBLUC_R_SQUARED 0.457, read-out: LUCIFERASE INFECTION ASSAY - IC50): 7.61 µM
31 | COc1ccc(C(N)=O)c(OCCC23CC4CC(CC(C4)C2)C3)c1 | > 10 | IC50 (PBLUC_HILL_SLOPE 2.6, PBLUC_R_SQUARED 0.547, read-out: LUCIFERASE INFECTION ASSAY - IC50): 6.07 µM
32 | CN1CCN(c2ccc(Cl)cc2NC(=O)Cn2c3ccccc3c(=O)c3ccccc32)CC1 | > 10 | IC50 (PBLUC_HILL_SLOPE 2.6, PBLUC_R_SQUARED 0.61, read-out: LUCIFERASE INFECTION ASSAY - IC50): 4.43 µM
33 | Cc1cc(C(=O)N/N=C/c2c(-c3ccccc3)nc3ccccn23)c(C)o1 | > 10 | IC50 (PBLUC_HILL_SLOPE 2.6, PBLUC_R_SQUARED 0.44, read-out: LUCIFERASE INFECTION ASSAY - IC50): 6.44 µM
34 | O=C(Nc1ccc(OC(F)(F)F)cc1)Nc1cc(-c2ccco2)n[nH]1 | > 9.37 | IC50 (PBLUC_HILL_SLOPE 2.58, PBLUC_R_SQUARED 0.157, read-out: LUCIFERASE INFECTION ASSAY - IC50): 7.52 µM
35 | Cc1nn(-c2ccc(F)cc2)c2ncc(C(=O)Nc3nc(C4CC4)cs3)cc12 | 4.45 | IC50 (PBLUC_HILL_SLOPE 2.65, PBLUC_R_SQUARED 0.58, read-out: LUCIFERASE INFECTION ASSAY - IC50): 1.94 µM
36 | O=C(c1cc(C2=NNC(=Nc3ccc(Cl)cc3)SC2)c[nH]1)N1CCCC1 | > 10 | IC50 (PBLUC_HILL_SLOPE 2.6, PBLUC_R_SQUARED 0.441, read-out: LUCIFERASE INFECTION ASSAY - IC50): 5.46 µM
37 | FC(F)(F)c1ccc(Nc2n[nH]c(=S)s2)cc1 | > 11.9 | IC50 (PBLUC_HILL_SLOPE 2.58, PBLUC_R_SQUARED 0.163, read-out: LUCIFERASE INFECTION ASSAY - IC50): 8.08 µM
38 | CC(C)Cn1c(-c2cccs2)nc2c(c(=O)c3ccccc3n2C)c1=O | 8.59 | IC50 (PBLUC_HILL_SLOPE 2.62, PBLUC_R_SQUARED 0.237, read-out: LUCIFERASE INFECTION ASSAY - IC50): 3.71 µM
39 | CCOc1ccc(CN2CCN(C(=O)Cc3c(C)nn(C)c3C)CC2)cc1 | > 10 | IC50 (PBLUC_HILL_SLOPE 2.6, PBLUC_R_SQUARED 0.21, read-out: LUCIFERASE INFECTION ASSAY - IC50): > 10 µM
40 | Cc1sc2nc(CSc3ccccc3)nc(N3CCN(CC(=O)NC4CC4)CC3)c2c1C | > 10 | IC50 (PBLUC_HILL_SLOPE 2.61, PBLUC_R_SQUARED 0.67, read-out: LUCIFERASE INFECTION ASSAY - IC50): 5.13 µM
